Series [1] deals with T1, CaSR (Rattus norvegicus, UniProt P48442).
T1 construct: expressed in transfected cells; host or cells: CHO (Chinese hamster ovary) cells
T1 sequence (P48442 20-1079): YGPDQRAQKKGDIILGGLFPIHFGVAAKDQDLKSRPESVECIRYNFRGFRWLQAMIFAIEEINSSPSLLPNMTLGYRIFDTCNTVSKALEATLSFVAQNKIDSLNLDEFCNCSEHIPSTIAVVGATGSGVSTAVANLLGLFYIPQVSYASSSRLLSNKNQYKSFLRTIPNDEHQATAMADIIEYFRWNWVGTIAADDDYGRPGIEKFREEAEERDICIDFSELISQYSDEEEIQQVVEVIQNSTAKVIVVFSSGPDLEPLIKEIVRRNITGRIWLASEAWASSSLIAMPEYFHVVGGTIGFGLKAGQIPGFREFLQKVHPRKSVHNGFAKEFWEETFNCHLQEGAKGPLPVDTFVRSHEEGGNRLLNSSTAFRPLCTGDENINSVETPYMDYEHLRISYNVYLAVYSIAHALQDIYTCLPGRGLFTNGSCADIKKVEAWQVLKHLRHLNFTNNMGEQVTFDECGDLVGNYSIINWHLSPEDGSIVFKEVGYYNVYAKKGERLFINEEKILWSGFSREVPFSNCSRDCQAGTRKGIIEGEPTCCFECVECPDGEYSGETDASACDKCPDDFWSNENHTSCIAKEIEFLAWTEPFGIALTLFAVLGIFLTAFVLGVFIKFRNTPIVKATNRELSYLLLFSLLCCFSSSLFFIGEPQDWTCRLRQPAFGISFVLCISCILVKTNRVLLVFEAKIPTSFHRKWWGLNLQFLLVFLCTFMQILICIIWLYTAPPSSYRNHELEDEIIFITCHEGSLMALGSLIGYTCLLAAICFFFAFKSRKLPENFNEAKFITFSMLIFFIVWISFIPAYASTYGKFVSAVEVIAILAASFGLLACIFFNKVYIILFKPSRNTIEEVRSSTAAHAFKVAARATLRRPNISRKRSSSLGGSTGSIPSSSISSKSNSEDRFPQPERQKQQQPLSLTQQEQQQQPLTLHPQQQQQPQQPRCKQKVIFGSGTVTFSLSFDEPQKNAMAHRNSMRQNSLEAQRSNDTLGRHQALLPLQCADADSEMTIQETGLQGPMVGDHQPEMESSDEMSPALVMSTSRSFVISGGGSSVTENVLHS
Description: Accumulation of tritiated inositol phosphates [3H]IP induced by 9 mM extracellular Ca2+ in transfected CHO(CaSR) cells. It is filed as cell-based. The following applies: for remaining activity at 10 µM: 0.5 h, compounds at 10 μM, induced by 9 mM Ca2+, control = 9 mM (Ca2+)e alone = 100, mean of 2 to 4 experiments, read-out: Accumulation of [^3H]IP % relative to the control; for remaining activity at 10 µM / inhibition of the accumulation of [^3H]IP induced by 9 mM (Ca^2+)e: CHO(CaSR) cells; for inhibition of the accumulation of [^3H]IP induced by 9 mM (Ca^2+)e / type of activity on production of [^3H]IP (calcimimetic/calcilytic): 10 μM compound, 9 mM (Ca2+)e. The source says:
Complementary DNA encoding rat CaSR has been isolated from a rat striatum cDNA library (Ruat et al., Proc. Natl. Acad. Sci., 1995, vol. 92, p. 3161–3165). This receptor is identical with respect to its amino acid sequence to that expressed in the other tissues. Transfected Chinese hamster ovary_(CHO) cells expressing rat CaSR(CHO(CaSR)) have been characterized and the chemical signals (second messengers) induced by the activation of this receptor have been analyzed. Thus, a biochemical test which makes it possible to measure the accumulation of tritiated inositol phosphates [^3H]IP in response to the activation of the receptor has been developed (Ruat et al., J. Biol. Chem., 1996, vol. 271, p. 5972–5975; Ferry et al., Biochem. Biophys. Res. Commun., 1997, vol. 238, p. 866–873).
The technique for measuring the accumulation of tritiated inositol phosphates [^3H]IP which is used is that described in Ruat et al., J. Biol. Chem., 1996, vol. 271, p. 5972-5975. Only the mode of incubating the compounds is modified. After a preincubation of 15 min of the compounds according to the invention in the presence of a basal concentration of (Ca^2+)e equal to 2 mM, the compounds are incubated for 30 min in the presence of a (Ca^2+)e concentration of 4 or 9 mM. The results, mean of 2 to 4 independent experiments each carried out in triplicate, are grouped together in Table 2.
The activity of the compounds is expressed as a percentage of the control activity measured in the presence of (Ca^2+)e alone of concentration 4 mM or 9 mM.

The next series deals with CHO(WT*) cells. Put plainly: Specificity: [3H]IP accumulation in control CHO(WT*) cells not expressing CaSR, various calcium, with or without ATP. Conditions: PHD 263 10 μM. The format is cell-based, Chinese hamster. As to the method: (§1) To assess the specificity of the antagonist activity of the molecules according to the invention, the effect of one of them, PHD 263, was studied under various calcium conditions, in the presence or otherwise of ATP on CHO(WT*) and CHO(CaSR) cells. […] The accumulation of tritiated inositol phosphates is expressed as a percentage of the basal level observed in the presence of 2 mM Ca^2+ (100) in the CHO(WT*) or CHO(CaSR) cells.
PHD 263 (10 μM) has the same effect on the [^3H]IP response in the CHO(WT*) cells in the presence of 2 or 4 mM calcium, indicating an absence of a nonspecific effect of the compound linked to the variation of [Ca^2+]e.

Series [2] concerns the target T1, CaSR. Put plainly: Specificity: [3H]IP accumulation by compound alone in CHO(CaSR) cells, relative to basal level at 2 mM Ca2+. The format is cell-based. Conditions: compound alone at 10 μM; CHO(CaSR) cells (sentence also names control CHO(WT*) cells). As to the method:
as §1

The conditions of series [3]: clinical trials Phase I-II; cited from earlier work.
The test system of series [4] is cell proliferation in the parathyroid gland. Conditions: rat model reproducing chronic renal insufficiency; cited from earlier work.

As to `CC(N[C@H]1CCCCC1NS(=O)(=O)c1ccc2ccccc2c1)c1cccc2ccccc12` (some centres unmarked) [PHD 404], the remaining activity at 10 µM on CaSR [1] was 39 ± 7%.
The same measure, in the same setting: the result for `COc1ccc(S(=O)(=O)NC2CC=CC[C@@H]2NC(C)c2cccc3ccccc23)cc1` (some centres unmarked) [PHD 511] reads 75 ± 10%; that for `CC(N[C@H]1CCCCC1NS(=O)(=O)c1ccc([N+](=O)[O-])cc1)c1cccc2ccccc12` (some centres unmarked) [PHD 397], 43 ± 1%.
Regarding `CC(N[C@H]1CCCCC1NS(=O)(=O)c1ccccc1Cl)c1cccc2ccccc12` (some centres unmarked) [PHD 350], at CaSR [1], the “inhibition of the accumulation of [^3H]IP induced by 9 mM (Ca^2+)e” value (from here on “inhibition”) stood at 25% and the remaining activity at 10 µM is 74 ± 2%.
Turning to `CC(N[C@H]1CCCCC1NS(=O)(=O)c1cccc(Cl)c1)c1cccc2ccccc12` (some centres unmarked) [AK 116], the remaining activity at 10 µM at CaSR [1] amounted to 40 ± 5%.
With `CC(N[C@H]1CCCCC1NCc1ccccc1Cl)c1cccc2ccccc12.Cl.Cl` (some centres unmarked) [PHD 346], on CaSR [1], the “type of activity on production of [^3H]IP (calcimimetic/calcilytic)” value is “calcimimetic activity” and the remaining activity at 10 µM is 110 ± 6%.
In general, melting point refers to the temperature, or range, at which the solid turns liquid. With `COc1ccc(S(=O)(=O)NC2CCCC[C@@H]2NC(C)c2cccc3ccccc23)cc1.Cl` (some centres unmarked) [PHD 263, N1-(4-methoxybenzenesulfonyl)-N-2-[1-(1-naphthyl)ethyl]cyclohexane-1,2-diamine], the melting point was 135 to 140 °C (dec.). Further, in the series with CHO(WT*) cells (CHO(WT) cells, in the presence of ATP), the “effect on the ATP-induced [^3H]IP response” value is listed as “adds to that of ATP”. The “effect on the [^3H]IP response at 2 versus 4 mM calcium” value with CHO(WT*) cells (CHO(WT*) cells, 2 or 4 mM calcium) is reported as “same effect”. In addition, the “accumulation of [^3H]IP as percentage of the basal level observed at 2 mM Ca2+ (100)” value at CaSR [2] is given as 124±10%. At CaSR [1], the “inhibition” value came out at 64% and the remaining activity at 10 µM worked out at 37 ± 5%.
For `CC(N[C@H]1CCCCC1NCc1ccc(F)cc1)c1cccc2ccccc12.Cl.Cl` (some centres unmarked) [PHD 348], on CaSR [1], the “type of activity on production of [^3H]IP (calcimimetic/calcilytic)” value is “calcimimetic activity” and the remaining activity at 10 µM was 119 ± 12%.
As to `CC(N[C@H]1CCCCC1NS(=O)(=O)c1ccccc1)c1cccc2ccccc12` (some centres unmarked) [PHD 408], the remaining activity at 10 µM at CaSR [1] came to 56 ± 4%.
As to `CC(N[C@H]1CCCCC1NS(=O)(=O)c1ccc(OC(F)(F)F)cc1)c1cccc2ccccc12.Cl` (some centres unmarked) [PHD 401], on CaSR [1], the “inhibition” value is 82% and the remaining activity at 10 µM was determined as 18 ± 3%.
Consider `CC(N[C@H]1CCCCC1NS(=O)(=O)c1ccc(C(F)(F)F)cc1)c1cccc2ccccc12` (some centres unmarked) [PHD 403], for which the remaining activity at 10 µM at CaSR [1] stood at 21 ± 1%.
As for `COc1ccc(S(=O)(=O)NC2CCCC[C@@H]2NC(C)c2cccc3ccccc23)cc1OC` (some centres unmarked) [PHD 349], the remaining activity at 10 µM at CaSR [1] amounted to 64 ± 5%.
On the same count and under the same terms, the figure for `CC(N[C@H]1CCCCC1NS(=O)(=O)c1ccc(Cl)cc1)c1cccc2ccccc12` (some centres unmarked) [PHD 406] is 28 ± 1%.
Regarding `COc1ccc(OC)c(S(=O)(=O)NC2CCCC[C@@H]2NC(C)c2cccc3ccccc23)c1` (some centres unmarked) [AK 115], the remaining activity at 10 µM on CaSR [1] came to 100 ± 4%.
Regarding `COc1cccc([C@@H](C)NCCCc2ccccc2Cl)c1` [NPS-R-568], the bioavailability entry in series [3] was “low bioavailability”. For the same compound, the “reduction of cell proliferation observed in the parathyroid gland” value in series [4] is listed as 20–50%.
With `CC(N[C@H]1CCCCC1NS(=O)(=O)c1ccc(Cl)c(Cl)c1Cl)c1cccc2ccccc12` (some centres unmarked) [AK 117], the remaining activity at 10 µM on CaSR [1] worked out at 42 ± 5%.

Source of the values: US7157498B2, “Diamines having a CaSR modulating activity” (Centre National de la Recherche Scientifique (CNRS), priority 2000, dated 2007).
